The record followed here is patent publication US20100016590A1, “NILOTINIB INTERMEDIATES AND PREPARATION THEREOF” (TEVA PHARMACEUTICAL INDUSTRIES LTD., priority 2008, published 2010).

The data set is described as follows: Humidifying Nilotinib.3HCl: water content measured at regular intervals in a closed glass container with saturated potassium chloride solution. In kind it is physicochemical. The settings on record: for water content (M/C) After 72 Hrs: after 72 Hrs in closed container over saturated potassium chloride solution; for water content (M/C) After 72 Hrs / water content (M/C) After 96 Hrs / M/C Initial (water content): tri hydrochloride; for water content (M/C) After 96 Hrs: after 96 Hrs in closed container over saturated potassium chloride solution; for M/C Initial (water content): before humidifying.

Counter-ions that a name gives are not always drawn.

Experimental: Weight 4.0 gms (having HPLC purity is 90%) Crude Nilotinib Tri hydrochloride in dry Petri dish and placed in to closed glass container containing (saturated Potassium chloride solution) at 20 to 25 temperature, the water content of crude Nilotinib was measured by regular interval.
Weight 4.0 gms (having HPLC purity is 97.91%) Pure Nilotinib Tri hydrochloride in dry Petri dish and placed in to closed glass container containing (saturated Potassium chloride solution) at 20 to 25 temperature, the water content of Pure Nilotinib was measured by regular interval.

In the case of `Cc1cn(-c2cc(NC(=O)c3ccc(C)c(Nc4nccc(-c5cccnc5)n4)c3)cc(C(F)(F)F)c2)cn1` [Nilotinib.3HCl (Pure), 3-(4-(pyridin-3-yl)pyrimidin-2-ylamino)-N-(3-(trifluoromethyl)-5-(4-methyl-1H-imidazol-1-yl)phenyl)-4-methylbenzamide tri hydrochloride], the “M/C Initial (water content)” value is recorded as 4.55%. Further, under “20 to 25 temperature”, the “water content (M/C) After 72 Hrs” value was found to be 14.90% and the “water content (M/C) After 96 Hrs” value is recorded as 14.41%.
As to `Cc1cn(-c2cc(NC(=O)c3ccc(C)c(Nc4nccc(-c5cccnc5)n4)c3)cc(C(F)(F)F)c2)cn1` [Nilotinib.3HCl (crude), 3-(4-(pyridin-3-yl)pyrimidin-2-ylamino)-N-(3-(trifluoromethyl)-5-(4-methyl-1H-imidazol-1-yl)phenyl)-4-methylbenzamide tri hydrochloride], the “M/C Initial (water content)” value amounted to 4.31%. The “water content (M/C) After 24 Hrs” value (after 24 Hrs in closed container over saturated potassium chloride solution, 20 to 25 temperature) came to 16.33%. For the same compound, the “water content (M/C) After 48 Hrs” value (after 48 Hrs in closed container over saturated potassium chloride solution, 20 to 25 temperature) is reported as 16.89%. Moreover, under “20 to 25 temperature”, the “water content (M/C) After 72 Hrs” value was found to be 16.40% and the “water content (M/C) After 96 Hrs” value was 16.36%. In addition, where the note is “after 120 Hrs in closed container over saturated potassium chloride solution, 20 to 25 temperature”, the “water content (M/C) After 120 Hrs” value stood at 16.53%.
